Biological target: T1, Human SST5 somatostatin receptor (Homo sapiens, UniProt P35346)
T1 construct: expressed in transfected cells; host or cells: HEK-293 EBNA cells (membranes)
Experiment: Filter plate radio-ligand binding assay for SST5 receptor ([125I]SST-14 displacement)
Details: 3P library; for % SST5 radio-ligand binding displaced at conc 0.5: conc 0.5 μM; for % SST5 radio-ligand binding displaced at conc 1.0: conc 1.0 μM; for % SST5 radio-ligand binding displaced at conc 10: conc 10 μM; for % SST5 radio-ligand binding displaced at conc 0.25: conc 0.25 μM

T1 sequence (P35346 whole entry): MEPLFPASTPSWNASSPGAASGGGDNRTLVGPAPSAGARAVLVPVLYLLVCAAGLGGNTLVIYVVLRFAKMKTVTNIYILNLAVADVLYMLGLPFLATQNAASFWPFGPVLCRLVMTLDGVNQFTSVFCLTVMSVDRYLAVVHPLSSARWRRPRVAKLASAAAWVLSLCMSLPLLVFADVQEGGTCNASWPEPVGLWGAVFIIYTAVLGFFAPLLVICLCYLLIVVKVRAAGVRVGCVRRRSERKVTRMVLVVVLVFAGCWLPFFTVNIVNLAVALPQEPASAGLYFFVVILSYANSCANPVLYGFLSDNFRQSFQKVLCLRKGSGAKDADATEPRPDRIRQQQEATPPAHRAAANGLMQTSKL

Row | Compound | % SST5 radio-ligand binding displaced at conc 0.001 (conc 0.001 μM) | % SST5 radio-ligand binding displaced at conc 0.10 (conc 0.10 μM) | % SST5 radio-ligand binding displaced at conc 0.5 | % SST5 radio-ligand binding displaced at conc 1.0 | % SST5 radio-ligand binding displaced at conc 10 | % SST5 radio-ligand binding displaced at conc 0.25
1 | COCC1OC(OCc2ccc(Cl)cc2)C(NC(=O)CN)C(OCc2ccc3ccccc3c2)C1O (mixture of isomers) [Compound 163] | − (% SST5 radio-ligand binding displaced at cone (μM) −<40%) | − (% SST5 radio-ligand binding displaced at cone (μM) −<40%) | − (% SST5 radio-ligand binding displaced at cone (μM) −<40%) | − (% SST5 radio-ligand binding displaced at cone (μM) −<40%) | ++ (% SST5 radio-ligand binding displaced at conc (μM) >60%) | 
2 | COC1C(O)C(COCc2ccc3ccccc3c2)OC(OCc2ccc(Cl)cc2)C1NC(=O)C1CCCN1 (mixture of isomers) [Compound 165] |  |  | − (% SST5 radio-ligand binding displaced at cone (μM) −<40%) |  | ++ (% SST5 radio-ligand binding displaced at conc (μM) >60%) | 
3 | COC1C(O)C(COCc2ccc3ccccc3c2)OC(OCc2ccc(Cl)cc2)C1NC(=O)C1CCCN1 (mixture of isomers) [Compound 167] |  |  | ++ (% SST5 radio-ligand binding displaced at conc (μM) >60%) |  | ++ (% SST5 radio-ligand binding displaced at conc (μM) >60%) | 
4 | COCC1OC(OCc2ccc(Cl)cc2)C(NC(=O)CN)C(OCc2ccc(-c3ccccc3)cc2)C1O (mixture of isomers) [Compound 173] |  |  |  | − (% SST5 radio-ligand binding displaced at cone (μM) −<40%) |  | − (% SST5 radio-ligand binding displaced at cone (μM) −<40%)
5 | COCC1OC(OCc2ccc(Cl)cc2)C(NC(=O)CN)C(OCc2ccc3ccccc3c2)C1O (mixture of isomers) [Compound 174] |  |  |  | − (% SST5 radio-ligand binding displaced at cone (μM) −<40%) |  | − (% SST5 radio-ligand binding displaced at cone (μM) −<40%)
6 | COCC1OC(OCc2ccc(Cl)cc2)C(NC(=O)CN)C(OCc2ccc3ccccc3c2)C1O (mixture of isomers) [Compound 175] |  |  |  | − (% SST5 radio-ligand binding displaced at cone (μM) −<40%) |  | − (% SST5 radio-ligand binding displaced at cone (μM) −<40%)
7 | COC1C(O)C(COCc2ccccc2)OC(OCc2ccc(Cl)cc2)C1NC(=O)CN (mixture of isomers) [Compound 176] |  |  |  | − (% SST5 radio-ligand binding displaced at cone (μM) −<40%) |  | − (% SST5 radio-ligand binding displaced at cone (μM) −<40%)
8 | COC1C(O)C(COCc2ccc(Cl)cc2)OC(OCc2ccc(Cl)cc2)C1NC(=O)CN (mixture of isomers) [Compound 177] |  |  |  | − (% SST5 radio-ligand binding displaced at cone (μM) −<40%) |  | − (% SST5 radio-ligand binding displaced at cone (μM) −<40%)
9 | COC1C(O)C(COCc2ccc(-c3ccccc3)cc2)OC(OCc2ccc(Cl)cc2)C1NC(=O)CN (mixture of isomers) [Compound 178] |  |  |  | − (% SST5 radio-ligand binding displaced at cone (μM) −<40%) |  | − (% SST5 radio-ligand binding displaced at cone (μM) −<40%)
10 | COC1C(O)C(COCc2ccc3ccccc3c2)OC(OCc2ccc(Cl)cc2)C1NC(=O)CN (mixture of isomers) [Compound 179] |  |  |  | − (% SST5 radio-ligand binding displaced at cone (μM) −<40%) |  | − (% SST5 radio-ligand binding displaced at cone (μM) −<40%)
11 | COC[C@H]1OC(OCc2ccc3ccccc3c2)[C@H](NC(=O)CCN)[C@@H](OCc2ccccc2)[C@@H]1O (single isomer, unassigned) [Compound 87] |  |  |  | − (% SST5 radio-ligand binding displaced at cone (μM) −<40%) |  | − (% SST5 radio-ligand binding displaced at cone (μM) −<40%)
12 | COC[C@H]1OC(OCc2ccc3ccccc3c2)[C@H](NC(=O)CCN)[C@@H](OCc2ccccc2)[C@@H]1O (single isomer, unassigned) [Compound 88] |  |  |  | − (% SST5 radio-ligand binding displaced at cone (μM) −<40%) |  | − (% SST5 radio-ligand binding displaced at cone (μM) −<40%)
13 | COC[C@H]1OC(OCc2ccc3ccccc3c2)[C@H](NC(=O)CCN)[C@@H](OCc2ccc(Cl)cc2)[C@@H]1O (single isomer, unassigned) [Compound 89] |  |  |  | − (% SST5 radio-ligand binding displaced at cone (μM) −<40%) |  | − (% SST5 radio-ligand binding displaced at cone (μM) −<40%)
14 | COC[C@H]1OC(OCc2ccc3ccccc3c2)[C@H](NC(=O)CCN)[C@@H](OCc2ccc(Cl)cc2)[C@@H]1O (single isomer, unassigned) [Compound 90] |  |  |  | ++ (% SST5 radio-ligand binding displaced at conc (μM) >60%) |  | + (% SST5 radio-ligand binding displaced at cone (μM) 60>+>40%)
15 | COC[C@H]1OC(OCc2ccc3ccccc3c2)[C@H](NC(=O)CCN)[C@@H](OCc2ccc(-c3ccccc3)cc2)[C@@H]1O (single isomer, unassigned) [Compound 91] |  |  |  | − (% SST5 radio-ligand binding displaced at cone (μM) −<40%) |  | − (% SST5 radio-ligand binding displaced at cone (μM) −<40%)
16 | COC[C@H]1OC(OCc2ccc3ccccc3c2)[C@H](NC(=O)CCN)[C@@H](OCc2ccc3ccccc3c2)[C@@H]1O (single isomer, unassigned) [Compound 92] |  |  |  | + (% SST5 radio-ligand binding displaced at cone (μM) 60>+>40%) |  | − (% SST5 radio-ligand binding displaced at cone (μM) −<40%)
17 | COC1C(O)C(COCc2ccc(Cl)cc2)OC(OCc2ccc3ccccc3c2)C1NC(=O)CCN (single isomer, unassigned) [Compound 94] |  |  |  | − (% SST5 radio-ligand binding displaced at cone (μM) −<40%) |  | − (% SST5 radio-ligand binding displaced at cone (μM) −<40%)
18 | CO[C@H]1[C@H](O)[C@@H](COCc2ccc(Cl)cc2)OC(OCc2ccc3ccccc3c2)[C@@H]1NC(=O)CCN (single isomer, unassigned) [Compound 95] |  |  |  | − (% SST5 radio-ligand binding displaced at cone (μM) −<40%) |  | − (% SST5 radio-ligand binding displaced at cone (μM) −<40%)
19 | CO[C@H]1[C@H](O)[C@@H](COCc2ccc(-c3ccccc3)cc2)OC(OCc2ccc3ccccc3c2)[C@@H]1NC(=O)CCN (single isomer, unassigned) [Compound 96] |  |  |  | − (% SST5 radio-ligand binding displaced at cone (μM) −<40%) |  | − (% SST5 radio-ligand binding displaced at cone (μM) −<40%)
20 | COC[C@H]1OC(OCc2ccc(Cl)cc2)[C@H](NC(=O)CN)[C@@H](OCc2ccccc2)[C@@H]1O (single isomer, unassigned) [Compound 168] |  |  |  | − (% SST5 radio-ligand binding displaced at cone (μM) −<40%) |  | − (% SST5 radio-ligand binding displaced at cone (μM) −<40%)
